For one assay, the target named is PLK2 (h) (Homo sapiens, UniProt Q9NYY3). Description: PLK2 human kinase inhibition, SPA. In kind it is biochemical. The note with it: read-out: PLK2 pIC50 (converted). Summed up: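 SPA read on Leadseeker: PLK2 (30 μg/ml) with 2 μM biotinylated peptide, 0.1 μM ATP plus 2 nM [γ-33P]ATP in 50 mM Hepes pH 8.0, 2 mM MnCl2, 1 mM DTT. Reaction ran 20 min at room temperature, then EDTA stop and streptavidin PVT beads.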

Another assay addresses CDK4/CyclinD1 (h) (Homo sapiens, UniProt P11802). The assay is described as follows: CDK4/CyclinD1 human kinase inhibition, SPA with GST-pRb substrate. It counts as biochemical. The note with it: read-out: CDK4 pIC50 (converted). In outline: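 Human CDK4/CyclinD1 (2.5 μg/ml) was incubated with 40 μg/ml GST-pRb and 2 nM [γ-33P]ATP in 50 mM Hepes pH 7.5, 8 mM NaF, 20 mM MgCl2, 1 mM DTT for 60 min at room temperature. EDTA stop with glutathione SPA beads; phosphorylation read by scintillation counting.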

For a further assay, the system named is HCT-116. Description: Cellular proliferation assay (Alamar blue), HCT-116. It counts as cell-based. The note with it: Homo sapiens, 10% FCS, 72 hours with compound, Alamar blue 4 h. In outline:
(§1)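 Proliferation in 10% FCS over a 72 h compound treatment, read as viable cell number by Alamar blue fluorescence and calculated against untreated control cells. Dye time varied by line: 6 h U87-MG, 4 h HCT-116, 24 h A2780 and MDA-MB-231.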
On the technique in general: Resazurin is reduced to fluorescent resorufin, in cell work by metabolically active cells.

For the next assay, the target named is PLK3 (h) (Homo sapiens, UniProt Q9H4B4). The assay is described as follows: PLK3 human kinase inhibition, SPA. In kind it is biochemical. The note with it: read-out: PLK3 pIC50 (converted). Summed up: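 SPA: PLK3 (h) at 30 μg/ml with 2 μM biotinylated peptide, 0.1 μM ATP plus 2 nM [γ-33P]ATP in 50 mM Hepes pH 8.0, 2 mM MnCl2 and 1 mM DTT. Incubated 20 min at room temperature, then stopped with EDTA and streptavidin PVT beads. Scintillation imaged on Leadseeker.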
PLK3 (h), sequence (Q9H4B4 whole entry): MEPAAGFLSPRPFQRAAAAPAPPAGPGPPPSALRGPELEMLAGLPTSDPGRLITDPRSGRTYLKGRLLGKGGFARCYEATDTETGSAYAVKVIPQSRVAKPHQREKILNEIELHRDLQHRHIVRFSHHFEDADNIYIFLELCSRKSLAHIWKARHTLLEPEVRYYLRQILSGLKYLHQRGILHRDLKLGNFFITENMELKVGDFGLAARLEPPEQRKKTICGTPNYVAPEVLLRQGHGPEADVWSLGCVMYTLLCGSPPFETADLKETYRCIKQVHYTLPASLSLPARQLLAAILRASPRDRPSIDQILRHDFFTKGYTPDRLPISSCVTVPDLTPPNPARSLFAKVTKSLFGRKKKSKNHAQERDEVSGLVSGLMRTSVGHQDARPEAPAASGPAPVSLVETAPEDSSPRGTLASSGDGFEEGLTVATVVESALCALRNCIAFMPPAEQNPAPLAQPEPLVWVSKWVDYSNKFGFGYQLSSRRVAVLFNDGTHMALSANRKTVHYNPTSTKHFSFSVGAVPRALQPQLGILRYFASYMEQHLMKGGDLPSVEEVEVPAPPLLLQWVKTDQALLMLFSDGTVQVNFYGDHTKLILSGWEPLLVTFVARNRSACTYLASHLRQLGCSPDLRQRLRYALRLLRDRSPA

Another assay relates to H1299. Description: Cellular proliferation assay (Alamar blue), H1299. In kind it is cell-based. The note with it: Homo sapiens, NCI-H1299; 10% FCS; 72 hours with compound; Alamar blue 4 h. Summed up:
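This proliferation assay on NCI-H1299 cells used an initial 24-hour compound-free incubation after seeding, followed by 72 hours of compound treatment with 10% FCS serum at 37° C. and 5% (v/v) CO2. Viable cells were quantified by a 4 h Alamar blue incubation and fluorescent plate reading at 544 nm/590 nm, and effects were expressed relative to control cells.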

The next assay has as its system A2780. Description: Cellular proliferation assay (Alamar blue), A2780. It counts as cell-based. The note with it: Homo sapiens, 10% FCS, 72 hours with compound, Alamar blue 24 h, read-out: A2780 (cellular proliferation assay, Table 4) (converted). In outline: as §1
The subject of a further assay is U87-MG. The assay is described as follows: Cellular proliferation assay (Alamar blue), U87-MG. It counts as cell-based. The note with it: Homo sapiens, U-87 MG; 10% FCS; 72 hours with compound; Alamar blue 6 h; read-out: U87-MG (cellular proliferation assay, Table 4) (converted). Summed up:
as §1

In another assay the target is CDK1/CyclinB (h) (Homo sapiens, UniProt P06493). The assay is described as follows: CDK1/CyclinB human kinase inhibition, Invitrogen's FRET assay (Z'lyte). In kind it is biochemical. The note with it: read-out: CDK1 pIC50 (converted). Summed up: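 Z'lyte FRET assay: human CDK1/CyclinB (0.2 μg/ml) with 2 μM Ser/Thr peptide 12 and 10 μM ATP in 50 mM Hepes pH 7.5, MgCl2, EGTA, Brij-35, 60 min at room temperature. Protease development 60 min, then emission ratio 460/538 nm read with excitation at 390 nm.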
CDK1/CyclinB (h), sequence (P06493 whole entry): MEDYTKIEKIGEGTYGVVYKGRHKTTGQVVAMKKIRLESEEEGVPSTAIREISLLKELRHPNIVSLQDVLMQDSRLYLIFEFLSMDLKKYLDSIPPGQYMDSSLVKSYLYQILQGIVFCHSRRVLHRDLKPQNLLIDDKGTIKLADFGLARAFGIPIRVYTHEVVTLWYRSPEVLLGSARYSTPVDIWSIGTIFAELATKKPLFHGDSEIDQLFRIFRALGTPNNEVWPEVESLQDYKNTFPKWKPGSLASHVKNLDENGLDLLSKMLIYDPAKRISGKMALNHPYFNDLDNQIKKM
CDK1/CyclinB (h), sequence (P14635 whole entry partner): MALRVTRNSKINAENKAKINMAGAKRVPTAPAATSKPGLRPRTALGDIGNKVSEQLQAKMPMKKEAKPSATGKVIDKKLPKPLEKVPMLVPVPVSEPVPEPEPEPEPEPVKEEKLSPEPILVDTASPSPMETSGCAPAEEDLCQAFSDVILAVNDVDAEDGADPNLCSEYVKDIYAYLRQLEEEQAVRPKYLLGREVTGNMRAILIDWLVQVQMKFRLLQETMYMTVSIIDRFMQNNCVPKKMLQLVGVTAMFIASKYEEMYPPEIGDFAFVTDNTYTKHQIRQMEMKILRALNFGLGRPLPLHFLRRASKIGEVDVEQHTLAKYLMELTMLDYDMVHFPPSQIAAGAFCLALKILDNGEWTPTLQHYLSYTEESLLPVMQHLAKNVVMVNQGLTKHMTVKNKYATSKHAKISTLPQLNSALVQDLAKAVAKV

In a further assay the test system is MDA-MB-231. The assay is described as follows: Cellular proliferation assay (Alamar blue), MDA-MB-231. It counts as cell-based. The note with it: Homo sapiens, 10% FCS, 72 hours with compound, Alamar blue 24 h, read-out: MDA/MB231 (cellular proliferation assay, Table 4) (converted). In outline: as §1
In another assay the target is GSK3β (h) (Homo sapiens, UniProt P49841). The assay is described as follows: GSK-3β human kinase inhibition, SPA. In kind it is biochemical. The note with it: read-out: GSK3b pIC50 (converted). Summed up:
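Scintillation proximity assay: GSK3β (1 μg/ml) with 1 μM biotinylated peptide, 1 μM ATP plus [γ-33P]ATP in Tris pH 7.4, MgCl2, DTT. 60 min at room temperature, stopped with EDTA and streptavidin PVT beads; phosphorylation read by Leadseeker imaging.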

GSK3β (h), sequence (P49841 whole entry): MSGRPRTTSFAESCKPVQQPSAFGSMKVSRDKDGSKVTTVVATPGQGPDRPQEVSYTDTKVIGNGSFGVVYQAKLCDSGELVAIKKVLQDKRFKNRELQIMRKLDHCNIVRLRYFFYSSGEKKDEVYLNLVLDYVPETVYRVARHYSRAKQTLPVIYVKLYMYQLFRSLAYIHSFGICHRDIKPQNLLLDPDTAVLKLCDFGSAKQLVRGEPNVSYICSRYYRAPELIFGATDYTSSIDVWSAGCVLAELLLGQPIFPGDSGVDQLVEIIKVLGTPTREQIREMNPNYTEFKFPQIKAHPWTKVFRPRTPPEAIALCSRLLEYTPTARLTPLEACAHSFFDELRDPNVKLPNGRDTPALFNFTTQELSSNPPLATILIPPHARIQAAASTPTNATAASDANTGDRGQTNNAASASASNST
PLK2 (h), sequence (Q9NYY3 whole entry): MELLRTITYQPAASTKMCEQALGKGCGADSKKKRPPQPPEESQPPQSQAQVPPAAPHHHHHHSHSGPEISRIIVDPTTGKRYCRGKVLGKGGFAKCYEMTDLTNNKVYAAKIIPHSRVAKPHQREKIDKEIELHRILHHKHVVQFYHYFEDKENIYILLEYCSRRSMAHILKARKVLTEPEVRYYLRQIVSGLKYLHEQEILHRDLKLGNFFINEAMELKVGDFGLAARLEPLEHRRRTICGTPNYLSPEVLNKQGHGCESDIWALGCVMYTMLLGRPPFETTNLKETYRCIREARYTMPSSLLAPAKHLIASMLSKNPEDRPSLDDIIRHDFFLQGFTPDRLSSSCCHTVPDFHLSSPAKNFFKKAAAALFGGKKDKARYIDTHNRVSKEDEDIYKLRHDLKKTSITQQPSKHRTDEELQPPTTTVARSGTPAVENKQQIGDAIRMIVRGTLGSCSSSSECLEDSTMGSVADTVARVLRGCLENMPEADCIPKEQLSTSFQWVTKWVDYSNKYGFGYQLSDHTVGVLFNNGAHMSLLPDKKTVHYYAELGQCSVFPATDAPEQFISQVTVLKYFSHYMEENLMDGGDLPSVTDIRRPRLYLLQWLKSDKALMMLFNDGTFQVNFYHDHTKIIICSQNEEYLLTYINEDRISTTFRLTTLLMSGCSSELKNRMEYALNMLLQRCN
CDK4/CyclinD1 (h), sequence (P11802 whole entry): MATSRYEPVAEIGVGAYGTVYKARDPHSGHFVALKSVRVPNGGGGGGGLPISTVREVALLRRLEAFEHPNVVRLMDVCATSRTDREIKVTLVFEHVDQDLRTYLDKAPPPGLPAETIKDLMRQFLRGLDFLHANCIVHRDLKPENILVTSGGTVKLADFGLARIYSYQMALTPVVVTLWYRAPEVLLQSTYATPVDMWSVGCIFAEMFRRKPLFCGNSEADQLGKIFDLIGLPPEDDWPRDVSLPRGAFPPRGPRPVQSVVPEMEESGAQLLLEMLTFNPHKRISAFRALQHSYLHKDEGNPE
CDK4/CyclinD1 (h), sequence (P24385 whole entry partner): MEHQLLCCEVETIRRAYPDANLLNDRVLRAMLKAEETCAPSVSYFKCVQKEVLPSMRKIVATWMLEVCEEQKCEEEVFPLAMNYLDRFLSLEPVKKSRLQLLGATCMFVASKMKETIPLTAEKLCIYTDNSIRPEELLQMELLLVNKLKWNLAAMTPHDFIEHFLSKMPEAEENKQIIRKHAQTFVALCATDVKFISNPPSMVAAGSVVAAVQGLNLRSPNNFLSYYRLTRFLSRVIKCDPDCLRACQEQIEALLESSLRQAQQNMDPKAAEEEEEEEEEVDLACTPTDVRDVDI

With `C[C@@H]1NCc2ccc(Cl)c(c2)Nc2nccc(n2)-c2cccc(c2)CNC1=O` [Compound 186], the IC50 at PLK2 (h), on CDK4/CyclinD1 (h), in the assay on HCT-116, at PLK3 (h), in the assay with H1299 and in the assay with A2780 was > 10 µM in each case. For the same compound, the IC50 in the assay with U87-MG, at CDK1/CyclinB (h), in the assay on MDA-MB-231 and at GSK3β (h) was > 10 µM in each case.
Turning to `O=C1CN2CCN(CC2)Cc2cccc(c2)Nc2nccc(n2)-c2cccc(c2)CN1` [Compound 196], the IC50 is > 10 µM at PLK2 (h); 6.17 µM at CDK4/CyclinD1 (h); > 10 µM with HCT-116; > 10 µM at PLK3 (h); > 10 µM in the assay with H1299; > 10 µM in the assay with A2780. The IC50 with U87-MG was > 10 µM; on CDK1/CyclinB (h), > 10 µM; in the assay on MDA-MB-231 it was > 10 µM; at GSK3β (h), 1.07 µM.
As for `C[C@@H]1NCc2cccc(c2)Nc2nccc(n2)-c2cccc(c2)CNC1=O` [Compound 184], the IC50 at PLK2 (h) was > 10 µM; on CDK4/CyclinD1 (h), 1.17 µM; in the assay with HCT-116 it was 5.37 µM; on PLK3 (h), > 10 µM; in the assay with H1299, 9.77 µM; with A2780 it was 5.01 µM. For the same compound, the IC50 was > 10 µM in the assay with U87-MG, 0.398 µM on CDK1/CyclinB (h), > 10 µM in the assay on MDA-MB-231 and 0.102 µM at GSK3β (h).
As to `O=C1CN2CCN(CC2)Cc2cc(ccc2N2CCOCC2)Nc2nccc(n2)-c2cccc(c2)OCCN1` [Compound 102], the IC50 on PLK2 (h) was > 10 µM; on CDK4/CyclinD1 (h), 8.13 µM; with HCT-116, 1.29 µM; on PLK3 (h), > 10 µM; in the assay with H1299, 1.15 µM; with A2780, 6.46 µM. Moreover, the IC50 in the assay with U87-MG is 3.09 µM; on CDK1/CyclinB (h) it was 2.57 µM; with MDA-MB-231, 6.61 µM; at GSK3β (h) it was 0.24 µM.
With `COc1ccc2cc1CN(C)CCNC(=O)[C@@H]1CCCN1Cc1cc(cc(NC(C)C)c1)Nc1nccc-2n1` [Compound 165], the IC50 at PLK2 (h) is > 10 µM; at CDK4/CyclinD1 (h), > 10 µM; in the assay with HCT-116, 5.62 µM; at PLK3 (h), > 10 µM; in the assay with H1299, > 10 µM; with A2780, > 10 µM. In addition, the IC50 was 6.17 µM with U87-MG, > 10 µM on CDK1/CyclinB (h), > 10 µM with MDA-MB-231 and > 10 µM at GSK3β (h).
In the case of `CC(C)Nc1cc2cc(c1)Nc1nccc(n1)-c1ccc(cc1)CN(C)CCCNC(=O)CN1CCN(CC1)C2` [Compound 131], the IC50 at PLK2 (h) was > 10 µM; at CDK4/CyclinD1 (h), > 10 µM; in the assay on HCT-116, 5.25 µM; at PLK3 (h) it was > 10 µM; in the assay on H1299, > 10 µM; in the assay with A2780 it was > 10 µM. The IC50 in the assay with U87-MG was > 10 µM; at CDK1/CyclinB (h), > 10 µM; in the assay on MDA-MB-231 it was > 10 µM; at GSK3β (h) it was 4.37 µM.
As for `COc1cc2cc(c1)Nc1nccc(n1)-c1ccc(OC)c(c1)CN(C)CCNC(=O)[C@H](CO)NC2` [Compound 107], the IC50 at PLK2 (h) is > 10 µM; on CDK4/CyclinD1 (h) it was > 10 µM; with HCT-116 it was 4.37 µM; on PLK3 (h) it was > 10 µM; with H1299, > 10 µM; with A2780 it was > 10 µM. Also, the IC50 in the assay on U87-MG is 8.91 µM; at CDK1/CyclinB (h), > 10 µM; with MDA-MB-231 it was > 10 µM; at GSK3β (h), 6.31 µM.
Consider `O=C1CN2CCN(CC2)Cc2ccc(Cl)c(c2)Nc2nccc(n2)-c2cccc(c2)CN1` [Compound 195], for which the IC50 at PLK2 (h), on CDK4/CyclinD1 (h), with HCT-116, at PLK3 (h), in the assay with H1299 and in the assay with A2780 was > 10 µM throughout. Further, the IC50 in the assay on U87-MG, at CDK1/CyclinB (h), in the assay with MDA-MB-231 and on GSK3β (h) was > 10 µM throughout.
Turning to `COc1cc2cc(c1)Nc1nccc(n1)-c1ccc(OC)c(c1)CN(C)CCNC(=O)C1CCN(CC1)C2` [Compound 67], the IC50 on PLK2 (h) was > 3.02 µM; on CDK4/CyclinD1 (h) it was > 10 µM; with HCT-116 it was > 10 µM; on PLK3 (h), > 10 µM; in the assay on H1299 it was > 10 µM; in the assay with A2780, > 10 µM. Also, the IC50 in the assay with U87-MG was > 10 µM; on CDK1/CyclinB (h), > 10 µM; with MDA-MB-231, > 10 µM; at GSK3β (h) it was 3.09 µM.
On to `COc1cc2cc(c1)Nc1nccc(n1)-c1ccc(OC)c(c1)CN(C)CCNC(=O)[C@@H]1CCCN1C2` [Compound 162], for which the IC50 was > 3.02 µM on PLK2 (h); > 10 µM on CDK4/CyclinD1 (h); > 10 µM with HCT-116; > 10 µM on PLK3 (h); > 10 µM in the assay on H1299; > 10 µM in the assay with A2780. Besides, the IC50 in the assay on U87-MG is > 10 µM; on CDK1/CyclinB (h), > 10 µM; in the assay with MDA-MB-231, > 10 µM; at GSK3β (h), 8.32 µM.
On to `C[C@@H]1NCc2cccc(c2)-c2ccnc(n2)Nc2ccc(N3CCOCC3)c(c2)CNC1=O` [Compound 101], for which the IC50 on PLK2 (h) is > 10 µM; on CDK4/CyclinD1 (h), 2.57 µM; in the assay on HCT-116, 2.69 µM; at PLK3 (h) it was > 10 µM; in the assay on H1299 it was 6.61 µM; in the assay with A2780, 4.68 µM. The IC50 was 5.01 µM in the assay with U87-MG, > 10 µM at CDK1/CyclinB (h), 8.13 µM with MDA-MB-231 and 0.182 µM on GSK3β (h).
As for `COc1ccc2cc1CN(C)CCNC(=O)[C@@H]1CCCN1Cc1cc(NCCc3ccccc3)cc(c1)Nc1nccc-2n1` [Compound 163], the IC50 was > 10 µM at PLK2 (h); > 10 µM at CDK4/CyclinD1 (h); 4.17 µM in the assay on HCT-116; > 10 µM on PLK3 (h); > 10 µM with H1299; 6.61 µM in the assay on A2780. In addition, the IC50 with U87-MG is 6.92 µM; on CDK1/CyclinB (h), > 10 µM; with MDA-MB-231, > 10 µM; on GSK3β (h), > 10 µM.
Turning to `CC(C)Nc1cc2cc(c1)Nc1nccc(n1)-c1ccc(cc1)CN(C)CCCNC(=O)C1CCN(CC1)C2` [Compound 65], the IC50 at PLK2 (h), on CDK4/CyclinD1 (h), in the assay with HCT-116, at PLK3 (h), in the assay on H1299 and in the assay with A2780 was > 10 µM each time. Moreover, the IC50 with U87-MG was 7.24 µM; at CDK1/CyclinB (h), > 10 µM; with MDA-MB-231, > 10 µM; on GSK3β (h), 3.24 µM.
As to `O=C1NCc2cccc(c2)-c2ccnc(n2)Nc2cccc(c2)CN2CCC1CC2` [Compound 124], the IC50 on PLK2 (h) was > 10 µM; at CDK4/CyclinD1 (h), 1.7 µM; in the assay with HCT-116 it was 2.88 µM; at PLK3 (h), > 10 µM; in the assay with H1299 it was > 10 µM; with A2780, > 10 µM. Also, the IC50 was 6.03 µM in the assay with U87-MG, 0.372 µM at CDK1/CyclinB (h), > 10 µM in the assay on MDA-MB-231 and 0.457 µM on GSK3β (h).

The record behind these values is patent US8609836B2, “4-aryl-2-anilino-pyrimidines” (Janssen Pharmaceutica NV, priority 2008, dated 2013).
